Experimental data: BindingDB's records for doi:10.1021/jm960837y (Boehringer Ingelheim Pharmaceuticals, 1997)

Experiments:
[1] = molecular target: T1, Gag-Pol polyprotein [600-1027,P835L]/[600-1155,P835L] (Human immunodeficiency virus 1, UniProt P03366, P835L); assay: HIV-1 RT Assay
T1 construct: 600-1027; 600-1155
Excerpt: (§1) The IC50 of reverse transcriptase is the concentration that inhibits 50% of recombinant HIV-1 RT RNA-directed DNA polymerase activity in vitro.

[2] = molecular target: T2, Gag-Pol polyprotein [600-1027,Y787L]/[600-1155,Y787L] (Human immunodeficiency virus 1, UniProt P03366, Y787L); assay: HIV-1 RT Assay; details: pH 7.8; 22 °C
T2 construct: 600-1027; 600-1155
Excerpt: as §1

Row | SMILES | IC50 [1] | IC50 [2]
1 | CCN1c2ncccc2C(=O)N(C)c2ccc(-c3c[nH]c4cnccc34)nc21 [2-ethyl-9-methyl-5-{1H-pyrrolo[2,3-c]pyridin-3-yl}-2,4,9,15-tetraazatricyclo[9.4.0.0^{3,8}]pentadeca-1(11),3(8),4,6,12,14-hexaen-10-one] | < 1 nM | 
2 | CCN1c2ncccc2C(=O)N(C)c2ccc(-c3cc[nH]c3)nc21 [2-ethyl-9-methyl-5-(1H-pyrrol-3-yl)-2,4,9,15-tetraazatricyclo[9.4.0.0^{3,8}]pentadeca-1(11),3(8),4,6,12,14-hexaen-10-one] | 130 nM | 100 nM
